Measured values: patent EP0091796A1, “Process for removing 1-sulfonyl groups from benzimidazoles” (ELI LILLY AND COMPANY, priority 1982, dated 1983)

Assay: pKa determination in 66% DMF/H2O
Details: for pKa: 66% dmf/h2o; for pK: solvent not given

SMILES	pKa (single or first (lower) pKa)	also measured
CON=C(c1ccccc1)c1ccc2nc(N)[nH]c2c1 [Example 1, 2-amino-5(6)-methoximephenylbenzimidazole]	8.88	
CC=C(c1ccccc1)c1ccc2nc(N)[nH]c2c1 [Example 2, 2-amino-5(6)-(ethylidenebenz^yl)benzimidazole]	6.98	
C/C=C(\c1ccccc1)c1ccc2nc(N)[nH]c2c1 [Example 3, trans-2-amino-5(6)-(ethylidenebenzyl)benzimidazole]	7.05	
C=C(c1ccccc1)c1ccc2nc(N)[nH]c2c1 [Example 6, 2-amino-5(6)-(methylidenebenzyl)benzimidazole]	6.8	
Nc1nc2cc(C(=O)c3ccccc3)ccc2[nH]1 [Example 7, 2-amino-5(6)-benzoylbenzimidazole]		pK (first (lower) printed value): 5.65; pK (second (higher) printed value): 13.0
Nc1nc2ccc(C(=O)c3ccccc3)cc2[nH]1 [Example 8, 2-amino-5(6)-benzoylbenzimidazole]	5.7	pKa (second (higher) printed pKa): 13.2
